Laboratory results published in patent US20240252488A1 (KOREA RESEARCH INSTITUTE OF CHEMICAL TECHNOLOGY, priority 2020, published 2024).
pKd: −log10 of the molar value.

Tests used:
FADD−/− Jurkat cells = experiment: Necroptosis inhibition assay, TNF-α-induced necroptosis (CellTiter-Glo 2.0); format: cell-based, human; settings: TNF-α 15 ng/mL; for Necroptosis inhibition assay (Rescue %) 10 μM: compound 10 μM; for Necroptosis inhibition assay (Rescue %) 1 μM: compound 1 μM
Outline: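 Compound is added to cells at final concentrations of 0.1, 1 and 10 μM and left 30 minutes at room temperature. Necroptosis is induced with 15 ng/mL TNF-α, culture continues 20 to 24 hours at 37° C, and ATP-based luminescence reports viability.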

MLKL [1] = target: T1, MLKL (Homo sapiens, UniProt Q8NB16); experiment: MLKL degradation assay in HepG2 cell line (western blot); format: cell-based; parameters: endogenous in cells; host or cells: HepG2 or HaCaT; settings: cell line not given; for Degradation assay (Degradation %) 1 μM: compound 1 μM; for Degradation assay (Degradation %) 10 μM: compound 10 μM
T1 sequence (Q8NB16 1-471): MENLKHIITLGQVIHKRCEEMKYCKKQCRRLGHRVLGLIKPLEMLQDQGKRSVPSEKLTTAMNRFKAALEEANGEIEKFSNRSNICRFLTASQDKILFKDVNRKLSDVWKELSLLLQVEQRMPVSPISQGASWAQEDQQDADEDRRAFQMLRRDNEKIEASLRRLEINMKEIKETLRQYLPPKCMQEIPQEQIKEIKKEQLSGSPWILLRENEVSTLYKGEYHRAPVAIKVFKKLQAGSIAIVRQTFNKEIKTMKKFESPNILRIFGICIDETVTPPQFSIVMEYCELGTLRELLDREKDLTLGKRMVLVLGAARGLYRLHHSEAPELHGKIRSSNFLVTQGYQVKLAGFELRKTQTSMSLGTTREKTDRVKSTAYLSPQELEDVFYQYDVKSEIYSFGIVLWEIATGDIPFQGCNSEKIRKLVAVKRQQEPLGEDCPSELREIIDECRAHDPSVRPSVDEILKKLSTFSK
Outline: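 Chemiluminescent western blot signal reports remaining MLKL protein in HepG2 cells after 20-24 h treatment with compound at a final 1 or 10 μM. Equal protein (10-15 μg, BCA) is loaded per lane.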

MLKL [2] = target: T1, MLKL; experiment: Measurement of binding affinity with MLKL receptor (competitive binding assay, Kd); parameters: made in house; host or cells: HEK 293 cell line (T7 phage in E. coli BL21-derived host is also described)
Outline: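 MLKL was produced in HEK 293 cells and tagged with DNA for detection. Liganded beads were blocked with excess biotin and washed to cut non-specific binding, then compounds (111× DMSO stocks, 0.9% DMSO in assay) competed for binding. Eluate kinase was measured by qPCR for Kd.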

SMILES	Necroptosis inhibition assay (Rescue %) 1.1 μM (FADD−/− Jurkat cells; compound 1.1 µM)	Necroptosis inhibition assay (Rescue %) 10 μM (FADD−/− Jurkat cells)	Degradation assay (Degradation %) 1 μM (MLKL [1])	Degradation assay (Degradation %) 10 μM (MLKL [1])	pKd (MLKL [2])	Necroptosis inhibition assay (Rescue %) 1 μM (FADD−/− Jurkat cells)	Necroptosis inhibition assay (Rescue %) 1 μM (FADD−/− Jurkat cells; FADD−/− Jurkat cells)	Necroptosis inhibition assay (Rescue %) 10 μM (FADD−/− Jurkat cells; FADD−/− Jurkat cells)
Nc1ncc(-c2cnn(C3CCN(CCOC4CCN(C(=O)COc5cccc6c5C(=O)N(C5CCC(=O)NC5=O)C6=O)CC4)CC3)c2)nc1C(=O)O[C@@H](C(=O)Nc1ccc(F)cc1)c1ccccc1 (stereo partly drawn) [TDH-331, (R)-2-((4-fluorophenyl)amino)-2-oxo-1-phenylethyl 3-amino-6-(1-(1-(2-((1-(2-((2-(2,6-dioxopiperidin-3-yl)-1,3-dioxoisoindolin-4-yl)oxy)acetyl)piperidin-4-yl)oxy)ethyl)piperidin-4-yl)-1H-pyrazol-4-yl)pyrazine-2-carboxylate]	49.38 (1.1 µM) %	47.13%	54.86%	60.37%	8.59			
Nc1ncc(-c2cnn(C3CCN(CCCCCCCCCCNC(=O)C4CN(c5ccc6nnn(C7CCC(=O)NC7=O)c(=O)c6c5)C4)CC3)c2)nc1C(=O)O[C@@H](C(=O)Nc1ccc(F)cc1)c1ccccc1 (stereo partly drawn) [TDH-178, (R)-2-((4-fluorophenyl)amino)-2-oxo-1-phenylethyl 3-amino-6-(1-(1-(10-(1-(3-(2,6-dioxopiperidin-3-yl)-4-oxo-3,4-dihydrobenzo[d][1,2,3]triazin-6-yl)azetidine-3-carboxamido)decyl)piperidin-4-yl)-1H-pyrazol-4-yl)pyrazine-2-carboxylate]		28.25%	72.12%	84.5%	7.14	24.45%		
Nc1ncc(-c2cnn(C3CCN(CC4CCN(CC(=O)N5CC(Nc6cccc7c6C(=O)N(C6CCC(=O)NC6=O)C7=O)C5)CC4)CC3)c2)nc1C(=O)OC(C(=O)Nc1ccc(F)cc1)c1ccccc1 (stereo not drawn) [TDH-271, 2-((4-fluorophenyl)amino)-2-oxo-1-phenylethyl 3-amino-6-(1-(1-((1-(2-(3-((2-(2,6-dioxopiperidin-3-yl)-1,3-dioxoisoindolin-4-yl)amino)azetidin-1-yl)-2-oxoethyl)piperidin-4-yl)methyl)piperidin-4-yl)-1H-pyrazol-4-yl)pyrazine-2-carboxylate]		76.94%	1.47%	4.22%	7.07	45.32%		
Nc1ncc(-c2cnn(C3CCN(CCOCCNC(=O)CNc4cccc5c4C(=O)N(C4CCC(=O)NC4=O)C5=O)CC3)c2)nc1C(=O)O[C@@H](C(=O)Nc1ccc(F)cc1)c1ccccc1 (stereo partly drawn) [TDH-096, (R)-2-((4-fluorophenyl)amino)-2-oxo-1-phenylethyl 3-amino-6-(1-(1-(2-(2-(2-((2-(2,6-dioxopiperidin-3-yl)-1,3-dioxoisoindolin-4-yl)amino)acetamido)ethoxy)ethyl)piperidin-4-yl)-1H-pyrazol-4-yl)pyrazine-2-carboxylate]		30.53%	60.02%	68.41%	8.40	32.98%		
Nc1ncc(-c2cnn(C3CCN(CCCCCCNC(=O)CNc4cccc5c4C(=O)N(C4CCC(=O)NC4=O)C5=O)CC3)c2)nc1C(=O)O[C@@H](C(=O)Nc1ccc(F)cc1)c1ccccc1 (stereo partly drawn) [TDH-101, (R)-2-((4-fluorophenyl)amino)-2-oxo-1-phenylethyl 3-amino-6-(1-(1-(6-(2-((2-(2,6-dioxopiperidin-3-yl)-1,3-dioxoisoindolin-4-yl)amino)acetamido)hexyl)piperidin-4-yl)-1H-pyrazol-4-yl)pyrazine-2-carboxylate]		18.45%	35.85%	29.42%	8.72	50.77%		
Nc1ncc(-c2cnn(C3CCN(CCCN4CC5CN(C(=O)COc6ccc7c(c6)C(=O)N(C6CCC(=O)NC6=O)C7=O)CC5C4)CC3)c2)nc1C(=O)O[C@@H](C(=O)Nc1ccc(F)cc1)c1ccccc1 (stereo partly drawn) [TDH-466, (R)-2-((4-fluorophenyl)amino)-2-oxo-1-phenylethyl 3-amino-6-(1-(1-(3-(5-(2-((2-(2,6-dioxopiperidin-3-yl)-1,3-dioxoisoindolin-5-yl)oxy)acetyl)hexahydropyrrolo[3,4-c]pyrrol-2(1H)-yl)propyl)piperidin-4-yl)-1H-pyrazol-4-yl)pyrazine-2-carboxylate]			60.76%	86.28%	9.39		54.2%	26.69%
Nc1ncc(-c2cnn([C@@H]3CCN(CCOCCOCCNC(=O)CNc4ccc5c(c4)C(=O)N(C4CCC(=O)NC4=O)C5=O)C3)c2)nc1C(=O)OC(C(=O)Nc1ccc(F)cc1)c1ccccc1 (stereo partly drawn) [TDH-268, 2-((4-fluorophenyl)amino)-2-oxo-1-phenylethyl 3-amino-6-(1-((3R)-1-(2-(2-(2-(2-((2-(2,6-dioxopiperidin-3-yl)-1,3-dioxoisoindolin-5-yl)amino)acetamido)ethoxy)ethoxy)ethyl)pyrrolidin-3-yl)-1H-pyrazol-4-yl)pyrazine-2-carboxylate]		51.22%	7.05%	35.64%	8.16	21.45%		
Nc1ncc(-c2cnn(C3CN(CC4CCN(C(=O)COc5cccc6c5C(=O)N(C5CCC(=O)NC5=O)C6=O)CC4)C3)c2)nc1C(=O)OC(C(=O)Nc1ccc(F)cc1)c1ccccc1 (stereo not drawn) [TDH-298, 2-((4-fluorophenyl)amino)-2-oxo-1-phenylethyl 3-amino-6-(1-(1-((1-(2-((2-(2,6-dioxopiperidin-3-yl)-1,3-dioxoisoindolin-4-yl)oxy)acetyl)piperidin-4-yl)methyl)azetidin-3-yl)-1H-pyrazol-4-yl)pyrazine-2-carboxylate]		66.6%	45.8%	78.83%	8.01	41.64%		
Nc1ncc(-c2cnn(C3CCN(CC4CCN(C(=O)CNc5ccc6c(c5)C(=O)N(C5CCC(=O)NC5=O)C6=O)CC4)CC3)c2)nc1C(=O)O[C@@H](C(=O)Nc1ccc(F)cc1)c1ccccc1 (stereo partly drawn) [TDH-137, (R)-2-((4-fluorophenyl)amino)-2-oxo-1-phenylethyl 3-amino-6-(1-(1-((1-((2-(2,6-dioxopiperidin-3-yl)-1,3-dioxoisoindolin-5-yl)glycyl)piperidin-4-yl)methyl)piperidin-4-yl)-1H-pyrazol-4-yl)pyrazine-2-carboxylate]		63.68%	54.49%	54.94%	8.55	76.05%		
